According to publication PMC6556898 (Biomaterials, 2018):

Key:
HIV-1ADA = test: Antiretroviral activity: reverse transcriptase; type: cell-based
[1] = test system: human monocyte-derived macrophages (MDM); test: MTT cell vitality assay; type: cell-based; conditions: 12 hours

RT activity (progeny HIV virion production) (HIV-1ADA; 6.25 μM for 8 hours, challenge at day 5, MOI 0.1, 10 days post infection): virtually no protection
RT activity (progeny HIV virion production) (HIV-1ADA; 12.5 mM RPV equivalents (printed) for 8 hours, challenge at day 5): no protection
cell vitality (MTT) ([1]; 200 μM (RPV), highest concentration tested): 37.9%
effect on cell vitality (MTT) ([1]; up to 50 μM (RPV)): little effect on cell vitality
Compound: Cc1cc(/C=C/C#N)cc(C)c1Nc1ccnc(Nc2ccc(C#N)cc2)n1 [native RPV, rilpivirine]
